What was measured:
CDK12 = CDK12 (Homo sapiens, UniProt Q9NYV4); assay: Western blot degradation of CDK12 (Example 2); assay type: cell-based; design: degradation of CDK12/13 protein in leukemia cells KASUMI-1, MV4-11, and Jurkat; endogenous in cells; conditions: DC50 classes, cell line not given; for DC50: read-out: CDK12 degradation Activity
Method: (§1) Western blot was used to determine the degradation of CDK12/13 protein in leukemia cells KASUMI-1, MV4-11, and Jurkat. The two compounds with the best degradation effects were further validated for their ability to degrade CDK12/13 protein in breast cancer cells MDA-MB-231 using a concentration gradient.
(§2) • Cell lines: KASUMI-1, MV4-11, Jurkat, or MDA-MB-231 • Culture medium: DMEM/RIPM-1640+10% Hyclone serum • Compound dissolution method: Compounds were dissolved in DMSO to prepare a 50 mM stock solution, and then diluted to the corresponding concentrations.
(§3) (1) In vitro cell culture: The selected cells were cultured in a 37 °C constant temperature incubator with 5% CO2. Once the cell density reached 70-90%, they were passaged for subsequent experiments.
(§4) (2) Cell seeding: Cells were digested, and the cell suspension was transferred to a 1.5 mL Eppendorf tube. After centrifugation at 1,000 rpm for 5 min, the cells were resuspended in 2 mL of culture medium and counted. The cell suspension was seeded in a 24-well plate at a density of 200,000 cells per well and allowed to adhere for 8-12 h.
(§5) (3) Compound treatment: The 50 mM compound stock solution was diluted with cell culture medium to a final concentration of 0.01 μM-3 μM. Cells were incubated in a 37 °C incubator with 5% CO2 for 3 h-48 h. The DMSO group served as the negative control.
(§6) At the end of the treatment time, the cells were collected and washed once with PBS. An appropriate volume of 4% SDS was added to lyse the cells, and the mixture was sonicated until no longer viscous. After centrifugation at 12,000 rpm at room temperature for 30 min, the supernatant was transferred to a new EP tube for protein quantification.
(§7) The exposure results were quantitatively analyzed using Image J software. First, the grayscale values of the bands were calculated using Image J. Then, the grayscale value of the target protein was divided by the grayscale value of the internal reference protein for normalization. The calculation formula is: […]
(§8) Where A is the grayscale value and D is the degradation rate.
(§9) In the figures, CDK12 and CDK13 are the target proteins under study, and β-Actin and GAPDH are the internal reference proteins. Internal reference proteins are used to indicate the total protein amount in each experimental group for quantitative analysis.

CDK13 = CDK13 (Homo sapiens, UniProt Q14004); assay: Western blot degradation of CDK13 (Example 2); assay type: cell-based; design: degradation of CDK12/13 protein in leukemia cells KASUMI-1, MV4-11, and Jurkat; endogenous in cells; conditions: DC50 classes, cell line not given; for DC50: read-out: CDK13 degradation Activity
Sequence of CDK13 (Q14004 whole entry): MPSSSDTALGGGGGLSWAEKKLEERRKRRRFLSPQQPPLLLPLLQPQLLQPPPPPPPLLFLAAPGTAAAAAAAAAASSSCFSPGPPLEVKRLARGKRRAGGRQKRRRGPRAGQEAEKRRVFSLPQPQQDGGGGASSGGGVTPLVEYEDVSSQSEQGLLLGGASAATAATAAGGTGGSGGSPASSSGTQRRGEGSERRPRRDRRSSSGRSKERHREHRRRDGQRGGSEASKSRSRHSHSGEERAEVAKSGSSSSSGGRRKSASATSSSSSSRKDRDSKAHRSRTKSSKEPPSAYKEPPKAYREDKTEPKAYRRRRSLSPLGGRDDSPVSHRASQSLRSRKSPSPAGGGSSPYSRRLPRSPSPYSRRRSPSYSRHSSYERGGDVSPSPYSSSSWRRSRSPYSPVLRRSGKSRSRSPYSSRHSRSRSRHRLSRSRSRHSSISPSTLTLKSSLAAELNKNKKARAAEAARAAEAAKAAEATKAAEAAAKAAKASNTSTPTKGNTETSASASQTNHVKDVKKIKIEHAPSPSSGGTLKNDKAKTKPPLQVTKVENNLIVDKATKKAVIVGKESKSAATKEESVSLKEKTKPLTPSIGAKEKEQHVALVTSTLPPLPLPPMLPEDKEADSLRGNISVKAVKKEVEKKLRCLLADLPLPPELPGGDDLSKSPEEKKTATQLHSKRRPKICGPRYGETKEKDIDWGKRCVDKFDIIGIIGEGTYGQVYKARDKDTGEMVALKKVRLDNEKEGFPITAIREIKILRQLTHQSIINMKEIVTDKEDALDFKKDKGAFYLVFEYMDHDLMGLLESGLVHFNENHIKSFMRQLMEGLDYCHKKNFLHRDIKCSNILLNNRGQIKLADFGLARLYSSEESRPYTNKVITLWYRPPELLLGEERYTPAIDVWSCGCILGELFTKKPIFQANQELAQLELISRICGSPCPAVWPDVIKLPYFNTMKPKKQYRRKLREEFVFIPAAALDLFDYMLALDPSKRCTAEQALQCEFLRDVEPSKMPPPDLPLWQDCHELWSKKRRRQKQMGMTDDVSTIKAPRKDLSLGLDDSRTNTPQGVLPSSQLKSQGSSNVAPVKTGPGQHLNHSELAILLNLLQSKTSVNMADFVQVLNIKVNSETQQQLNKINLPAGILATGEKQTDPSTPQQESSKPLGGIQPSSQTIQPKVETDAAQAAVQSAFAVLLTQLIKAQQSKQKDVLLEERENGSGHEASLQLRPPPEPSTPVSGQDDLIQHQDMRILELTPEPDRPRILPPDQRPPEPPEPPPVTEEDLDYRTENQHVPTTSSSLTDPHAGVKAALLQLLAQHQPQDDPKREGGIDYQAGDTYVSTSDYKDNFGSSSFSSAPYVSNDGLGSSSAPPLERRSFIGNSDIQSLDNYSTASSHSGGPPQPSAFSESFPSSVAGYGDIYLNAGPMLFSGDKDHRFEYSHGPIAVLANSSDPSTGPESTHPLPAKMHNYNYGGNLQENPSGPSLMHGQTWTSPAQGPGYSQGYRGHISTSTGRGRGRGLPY
Sequence of CDK13 (O75909 whole entry partner): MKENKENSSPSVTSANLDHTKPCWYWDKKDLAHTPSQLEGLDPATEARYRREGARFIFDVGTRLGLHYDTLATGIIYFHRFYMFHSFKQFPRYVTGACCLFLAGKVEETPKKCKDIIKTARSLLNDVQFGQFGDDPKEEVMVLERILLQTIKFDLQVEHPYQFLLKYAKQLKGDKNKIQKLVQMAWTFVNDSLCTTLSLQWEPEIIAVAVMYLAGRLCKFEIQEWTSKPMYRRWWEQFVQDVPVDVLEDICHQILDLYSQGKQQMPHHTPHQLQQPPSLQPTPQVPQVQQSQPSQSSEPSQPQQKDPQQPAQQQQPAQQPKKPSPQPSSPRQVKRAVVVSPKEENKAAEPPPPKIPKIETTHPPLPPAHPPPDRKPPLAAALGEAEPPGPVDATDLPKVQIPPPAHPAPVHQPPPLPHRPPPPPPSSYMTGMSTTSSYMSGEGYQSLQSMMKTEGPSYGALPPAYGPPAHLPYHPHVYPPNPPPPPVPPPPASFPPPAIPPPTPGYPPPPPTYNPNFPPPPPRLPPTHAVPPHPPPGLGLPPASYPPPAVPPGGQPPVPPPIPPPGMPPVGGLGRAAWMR
Method: as §1, §2, §3, §4, §5, §6, §7, §8, §9

Sequence of CDK12 (Q9NYV4 whole entry): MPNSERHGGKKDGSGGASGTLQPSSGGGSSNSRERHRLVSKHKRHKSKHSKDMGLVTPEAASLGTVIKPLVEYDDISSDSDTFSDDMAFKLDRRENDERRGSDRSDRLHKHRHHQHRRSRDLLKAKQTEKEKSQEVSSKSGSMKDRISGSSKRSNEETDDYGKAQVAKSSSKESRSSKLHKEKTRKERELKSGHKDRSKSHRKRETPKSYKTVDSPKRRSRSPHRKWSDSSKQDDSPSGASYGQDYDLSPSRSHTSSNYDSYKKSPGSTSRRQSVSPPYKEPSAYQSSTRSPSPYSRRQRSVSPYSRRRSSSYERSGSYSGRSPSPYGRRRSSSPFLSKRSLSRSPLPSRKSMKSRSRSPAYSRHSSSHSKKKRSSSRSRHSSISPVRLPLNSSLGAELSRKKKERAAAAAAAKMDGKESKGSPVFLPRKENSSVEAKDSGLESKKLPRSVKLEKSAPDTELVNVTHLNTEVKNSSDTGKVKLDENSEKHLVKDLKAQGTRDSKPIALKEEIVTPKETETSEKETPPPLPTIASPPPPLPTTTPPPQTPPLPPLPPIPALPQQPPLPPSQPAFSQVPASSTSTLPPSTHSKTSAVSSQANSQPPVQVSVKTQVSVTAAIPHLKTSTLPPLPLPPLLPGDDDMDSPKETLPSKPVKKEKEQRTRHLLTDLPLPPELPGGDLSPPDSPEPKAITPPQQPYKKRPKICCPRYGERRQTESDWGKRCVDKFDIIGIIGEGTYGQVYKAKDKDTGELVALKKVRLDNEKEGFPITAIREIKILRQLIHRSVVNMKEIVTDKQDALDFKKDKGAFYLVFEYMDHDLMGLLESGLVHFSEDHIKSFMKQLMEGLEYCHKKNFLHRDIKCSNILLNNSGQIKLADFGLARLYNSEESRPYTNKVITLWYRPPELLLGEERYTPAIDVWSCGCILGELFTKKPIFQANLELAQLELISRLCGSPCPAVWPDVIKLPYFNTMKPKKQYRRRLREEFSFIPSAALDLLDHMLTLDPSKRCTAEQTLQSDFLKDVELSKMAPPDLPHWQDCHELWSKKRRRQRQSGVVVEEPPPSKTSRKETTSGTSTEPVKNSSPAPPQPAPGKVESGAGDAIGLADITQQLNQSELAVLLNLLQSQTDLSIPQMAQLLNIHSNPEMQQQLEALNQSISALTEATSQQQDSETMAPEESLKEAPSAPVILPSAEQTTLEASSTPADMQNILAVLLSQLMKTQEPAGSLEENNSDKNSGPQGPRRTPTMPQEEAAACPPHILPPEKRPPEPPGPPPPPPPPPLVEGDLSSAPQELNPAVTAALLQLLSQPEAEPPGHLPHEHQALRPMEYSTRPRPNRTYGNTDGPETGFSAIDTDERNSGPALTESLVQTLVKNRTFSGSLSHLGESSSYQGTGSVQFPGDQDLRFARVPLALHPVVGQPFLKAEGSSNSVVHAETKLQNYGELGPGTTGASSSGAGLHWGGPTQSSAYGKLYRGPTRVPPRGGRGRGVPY
Sequence of CDK12 (O75909 whole entry partner): as the sequence (O75909 whole entry partner) above

| Compound | DC50 (CDK12) [µM] | CDK12 degradation Activity (CDK12) | CDK13 degradation Activity (CDK13) | DC50 (CDK13) [µM] |
| --- | --- | --- | --- | --- |
| Cc1ncsc1-c1ccc([C@H](C)NC(=O)[C@@H]2C[C@@H](O)CN2C(=O)[C@@H](NC(=O)CN2CCN(c3ncc(-c4ccc(N(C(=O)NCc5ccccc5)[C@H]5CC[C@H](Nc6ccc(C#N)cn6)CC5)cc4)cn3)CC2)C(C)(C)C)cc1 [Formula 80] | < 0.1 |  |  | < 0.1 |
| Cc1ncsc1-c1ccc([C@H](C)NC(=O)[C@@H]2C[C@@H](O)CN2C(=O)[C@@H](NC(=O)CC#CC2CN(c3ccc(N(C(=O)NCc4ccccc4)[C@H]4CC[C@H](Nc5ccc(C#N)cn5)CC4)cc3)C2)C(C)(C)C)cc1 [Formula 24] |  | − | − |  |
| Cc1ncsc1-c1ccc([C@H](C)NC(=O)[C@@H]2C[C@@H](O)CN2C(=O)[C@@H](NC(=O)CN2CCN(c3ncc(-c4ccc(N(C(=O)NCc5ccccc5)[C@H]5CC[C@H](Nc6ccc(C#N)cn6)CC5)cc4)cn3)CC2)C(C)(C)C)cc1 [Formula 84] | < 0.1 |  |  | < 0.1 |
| Cc1ncsc1-c1ccc([C@H](C)NC(=O)[C@@H]2C[C@@H](O)CN2C(=O)[C@@H](NC(=O)CN2CCN(c3ncc(-c4ccc(N(C(=O)NCc5ccccc5)[C@H]5CC[C@H](Nc6ccc(C#N)cn6)CC5)cc4)cn3)CC2)C(C)(C)C)cc1 [Formula 82] | < 0.1 |  |  | < 0.1 |
| Cc1ncsc1-c1ccc([C@H](C)NC(=O)[C@@H]2C[C@@H](O)CN2C(=O)[C@@H](NC(=O)CN2CCN(c3ccc(-c4ccc(N(C(=O)NCc5ccccc5)[C@H]5CC[C@H](Nc6ccc(C#N)cn6)CC5)cc4)cn3)CC2)C(C)(C)C)cc1 [Formula 78] |  |  |  | < 0.1 |
| Cc1ncsc1-c1ccc([C@H](C)NC(=O)[C@@H]2C[C@@H](O)CN2C(=O)[C@@H](NC(=O)CC#CC2CCN(c3ccc(N(C(=O)NCc4ccccc4)[C@H]4CC[C@H](Nc5ccc(C#N)cn5)CC4)cc3)CC2)C(C)(C)C)cc1 [Formula 20] | 3 to 10 |  |  | 3 to 10 |
| Cc1ncsc1-c1ccc([C@H](C)NC(=O)[C@@H]2C[C@@H](O)CN2C(=O)[C@@H](NC(=O)CN2CCN(c3ccc(-c4ccc(N(C(=O)NCc5ccccc5)[C@H]5CC[C@H](Nc6ccc(C#N)cn6)CC5)cc4)cn3)CC2)C(C)(C)C)cc1 [Formula 75] |  |  |  | < 0.1 |
| Cc1ncsc1-c1ccc([C@H](C)NC(=O)[C@@H]2C[C@@H](O)CN2C(=O)[C@@H](NC(=O)N2CC3(CCN(c4ccc(N(C(=O)NCc5ccccc5)[C@H]5CC[C@H](Nc6ncc(C#N)cn6)CC5)cc4)CC3)C2)C(C)(C)C)cc1 [Formula 54] |  | − | − |  |
| Cc1ncsc1-c1ccc([C@H](C)NC(=O)[C@@H]2C[C@@H](O)CN2C(=O)[C@@H](NC(=O)CN2CCN(c3ncc(-c4ccc(N(C(=O)NCc5ccccc5)[C@H]5CC[C@H](Nc6ccc(C#N)cn6)CC5)cc4)cn3)CC2)C(C)(C)C)cc1 [Formula 79] | < 0.1 |  |  | < 0.1 |
| Cc1ncsc1-c1ccc([C@H](C)NC(=O)[C@@H]2C[C@@H](O)CN2C(=O)[C@@H](NC(=O)CN2CCN(c3ncc(-c4ccc(N(C(=O)NCc5ccccc5)[C@H]5CC[C@H](Nc6ccc(C#N)cn6)CC5)cc4)cn3)CC2)C(C)(C)C)cc1 [Formula 83] | < 0.1 |  |  | < 0.1 |
| Cc1ncsc1-c1ccc([C@H](C)NC(=O)[C@@H]2C[C@@H](O)CN2C(=O)[C@@H](NC(=O)CN2CCN(c3ccc(-c4ccc(N(C(=O)NCc5ccccc5)[C@H]5CC[C@H](Nc6ccc(C#N)cn6)CC5)cc4)cn3)CC2)C(C)(C)C)cc1 [Formula 76] |  |  |  | < 0.1 |
| Cc1ncsc1-c1ccc([C@H](C)NC(=O)[C@@H]2C[C@@H](O)CN2C(=O)[C@@H](NC(=O)CN2CCN(c3ccc(-c4ccc(N(C(=O)NCc5ccccc5)[C@H]5CC[C@H](Nc6ccc(C#N)cn6)CC5)cc4)cn3)CC2)C(C)(C)C)cc1 [Formula 72] |  |  |  | < 0.1 |
| Cc1ncsc1-c1ccc([C@H](C)NC(=O)[C@@H]2C[C@@H](O)CN2C(=O)[C@@H](NC(=O)CN2CCN(c3ccc(-c4ccc(N(C(=O)NCc5ccccc5)[C@H]5CC[C@H](Nc6ccc(C#N)cn6)CC5)cc4)cn3)CC2)C(C)(C)C)cc1 [Formula 74] |  |  |  | < 0.1 |
| Cc1ncsc1-c1ccc([C@H](C)NC(=O)[C@@H]2C[C@@H](O)CN2C(=O)[C@@H](NC(=O)CN2CCN(c3ccc(-c4ccc(N(C(=O)NCc5ccccc5)[C@H]5CC[C@H](Nc6ccc(C#N)cn6)CC5)cc4)cn3)CC2)C(C)(C)C)cc1 [Formula 71] |  |  |  | < 0.1 |
| Cc1ncsc1-c1ccc([C@H](C)NC(=O)[C@@H]2C[C@@H](O)CN2C(=O)[C@@H](NC(=O)CN2CCN(c3ccc(-c4ccc(N(C(=O)NCc5ccccc5)[C@H]5CC[C@H](Nc6ccc(C#N)cn6)CC5)cc4)cn3)CC2)C(C)(C)C)cc1 [Formula 77] |  |  |  | < 0.1 |

The next lines start with results.

| DC50 (CDK12) [µM] | CDK12 degradation Activity (CDK12) | CDK13 degradation Activity (CDK13) | Compound | DC50 (CDK13) [µM] |
| --- | --- | --- | --- | --- |
| 3 to 10 |  |  | Cc1ncsc1-c1ccc([C@H](C)NC(=O)[C@@H]2C[C@@H](O)CN2C(=O)[C@@H](NC(=O)COCCOCCOCCOc2ccc(-c3ccc(N(C(=O)NCc4ccccc4)[C@H]4CC[C@H](Nc5ccc(C#N)cn5)CC4)cc3)cn2)C(C)(C)C)cc1 [Formula 3] | 3 to 10 |
| 3 to 10 |  |  | Cc1ncsc1-c1ccc([C@H](C)NC(=O)[C@@H]2C[C@@H](O)CN2C(=O)[C@@H](NC(=O)COCCOCCOCCN2CCN(c3ccc(N(C(=O)NCc4ccccc4)[C@H]4CC[C@H](Nc5ccc(C#N)cn5)CC4)cc3)CC2)C(C)(C)C)cc1 [Formula 9] | 3 to 10 |
| 1 to 3 |  |  | CCNC(=O)N(c1ccc(-c2ccc(OCCOCCOCCOCCNc3cccc4c3C(=O)N(C3CCC(=O)NC3=O)C4=O)nc2)cc1)[C@H]1CC[C@H](Nc2ccc(C#N)cn2)CC1 (stereo partly shown) [Formula 43] | 1 to 3 |
| 1 to 3 |  |  | Cc1ncsc1-c1ccc([C@H](C)NC(=O)[C@@H]2C[C@@H](O)CN2C(=O)[C@@H](NC(=O)CN2CCN(c3ccc(N(C(=O)NCc4ccccc4)[C@H]4CC[C@H](Nc5ccc(C#N)cn5)CC4)cc3)CC2)C(C)(C)C)cc1 [Formula 10] | 1 to 3 |
|  | − | − | Cc1ncsc1-c1ccc([C@H](C)NC(=O)[C@@H]2C[C@@H](O)CN2C(=O)[C@@H](NC(=O)CN2CC(C#Cc3ccc(N(C(=O)NCc4ccccc4)[C@H]4CC[C@H](Nc5ccc(C#N)cn5)CC4)cc3)C2)C(C)(C)C)cc1 [Formula 26] |  |
| 3 to 10 |  | − | Cc1ncsc1-c1ccc([C@H](C)NC(=O)[C@@H]2C[C@@H](O)CN2C(=O)[C@@H](NC(=O)CC#CC2CN(c3ccc(-c4ccc(N(C(=O)NCc5ccccc5)[C@H]5CC[C@H](Nc6ccc(C#N)cn6)CC5)cc4)cn3)C2)C(C)(C)C)cc1 [Formula 23] |  |
|  | − | − | Cc1ncsc1-c1ccc([C@H](C)NC(=O)[C@@H]2C[C@@H](O)CN2C(=O)[C@@H](NC(=O)CC#Cc2ccc(-c3ccc(N(C(=O)NCc4ccccc4)[C@H]4CC[C@H](Nc5ccc(C#N)cn5)CC4)cc3)cn2)C(C)(C)C)cc1 [Formula 15] |  |
| 3 to 10 |  |  | N#Cc1ccc(N[C@H]2CC[C@H](N(C(=O)NCc3ccccc3)c3ccc(-c4ccc(=O)n(CCOCCOCCOCCOCCOCCNc5cccc6c5C(=O)N(C5CCC(=O)NC5=O)C6=O)c4)cc3)CC2)nc1 (stereo partly shown) [Formula 50] | 3 to 10 |
| 1 to 3 |  |  | N#Cc1ccc(N[C@H]2CC[C@H](N(C(=O)NCc3ccccc3)c3ccc(-c4ccc(OCCOCCOCCOCCOCCNc5cccc6c5C(=O)N(C5CCC(=O)NC5=O)C6=O)nc4)cc3)CC2)nc1 (stereo partly shown) [Formula 35] | 3 to 10 |
| 1 to 3 |  |  | N#Cc1ccc(N[C@H]2CC[C@H](N(C(=O)NCc3ccccc3)c3ccc(N4CCN(CCNc5cccc6c5C(=O)N(C5CCC(=O)NC5=O)C6=O)CC4)cc3)CC2)nc1 (stereo partly shown) [Formula 42] | 1 to 3 |
| 3 to 10 |  |  | Cc1ncsc1-c1ccc([C@H](C)NC(=O)[C@@H]2C[C@@H](O)CN2C(=O)[C@@H](NC(=O)CN2CCC(C#Cc3ccc(N(C(=O)NCc4ccccc4)[C@H]4CC[C@H](Nc5ccc(C#N)cn5)CC4)cc3)CC2)C(C)(C)C)cc1 [Formula 25] | 3 to 10 |
| 3 to 10 |  |  | Cc1ncsc1-c1ccc([C@H](C)NC(=O)[C@@H]2C[C@@H](O)CN2C(=O)[C@@H](NC(=O)CC#CCCOc2ccc(-c3ccc(N(C(=O)NCc4ccccc4)[C@H]4CC[C@H](Nc5ccc(C#N)cn5)CC4)cc3)cn2)C(C)(C)C)cc1 [Formula 13] | 3 to 10 |
| 1 to 3 |  |  | Cc1ncsc1-c1ccc([C@H](C)NC(=O)[C@@H]2C[C@@H](O)CN2C(=O)[C@@H](NC(=O)CN2CCC(n3cc(-c4ccc(N(C(=O)NCc5ccccc5)[C@H]5CC[C@H](Nc6ccc(C#N)cn6)CC5)cc4)cn3)CC2)C(C)(C)C)cc1 [Formula 31] | 3 to 10 |
